Reference: ChEMBL document CHEMBL1201862, “PubChem BioAssay data set” (2004)
Active and inactive are the calls of the source.

Key:
Bcl-2-like protein 10 = Bcl-2-like protein 10 (Homo sapiens, UniProt Q9HD36); experiment: displacers of TR3 peptide from Bcl-B, primary screen, selectivity assay for Bfl-1 inhibitor project, biochemical, fluorescence polarization, FITC-TR3 peptide (AID 748);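 note: fluorescence polarization from a fluorescein-labelled TR3 peptide binding purified Bcl-B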
Estrogen receptor beta = Estrogen receptor beta (Homo sapiens, UniProt Q92731); experiment: ERβ–SRC-3 coactivator interaction inhibitors, confirmation, orthogonal assay, biochemical, ELISA, streptavidin-HRP readout (AID 1060)
Sequence of Estrogen receptor beta (Q92731 whole entry): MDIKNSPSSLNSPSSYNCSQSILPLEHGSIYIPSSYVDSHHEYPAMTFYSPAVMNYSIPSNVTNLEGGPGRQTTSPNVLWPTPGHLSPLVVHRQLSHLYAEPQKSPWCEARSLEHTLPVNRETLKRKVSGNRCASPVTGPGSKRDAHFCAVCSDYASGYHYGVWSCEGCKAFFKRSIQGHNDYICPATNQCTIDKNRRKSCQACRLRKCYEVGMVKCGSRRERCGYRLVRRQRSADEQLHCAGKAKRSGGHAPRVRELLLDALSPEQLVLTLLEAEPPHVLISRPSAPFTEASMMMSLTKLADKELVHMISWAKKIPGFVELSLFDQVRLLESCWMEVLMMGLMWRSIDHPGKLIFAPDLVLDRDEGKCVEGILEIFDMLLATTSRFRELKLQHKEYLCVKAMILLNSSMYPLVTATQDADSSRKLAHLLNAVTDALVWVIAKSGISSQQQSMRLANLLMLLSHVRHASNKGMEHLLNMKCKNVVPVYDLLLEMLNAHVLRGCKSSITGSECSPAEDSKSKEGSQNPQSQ

[1] = target: Voltage-gated N-type calcium channel alpha-1B subunit/Amyloid beta A4 precursor protein-binding family A member 1 (Homo sapiens, UniProt Q00975+Q02410); experiment: disruptors of Mint-PDZ/N-type channel peptide interaction – biochemical, HTRF, set 2, SAR follow-up (AID 434980); type: functional
Cytochrome P450 2D6 = Cytochrome P450 2D6 (Homo sapiens, UniProt P10635);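 note: CYP2D6 member of a cytochrome P450 panel assay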
Sequence of Cytochrome P450 2D6 (P10635 whole entry): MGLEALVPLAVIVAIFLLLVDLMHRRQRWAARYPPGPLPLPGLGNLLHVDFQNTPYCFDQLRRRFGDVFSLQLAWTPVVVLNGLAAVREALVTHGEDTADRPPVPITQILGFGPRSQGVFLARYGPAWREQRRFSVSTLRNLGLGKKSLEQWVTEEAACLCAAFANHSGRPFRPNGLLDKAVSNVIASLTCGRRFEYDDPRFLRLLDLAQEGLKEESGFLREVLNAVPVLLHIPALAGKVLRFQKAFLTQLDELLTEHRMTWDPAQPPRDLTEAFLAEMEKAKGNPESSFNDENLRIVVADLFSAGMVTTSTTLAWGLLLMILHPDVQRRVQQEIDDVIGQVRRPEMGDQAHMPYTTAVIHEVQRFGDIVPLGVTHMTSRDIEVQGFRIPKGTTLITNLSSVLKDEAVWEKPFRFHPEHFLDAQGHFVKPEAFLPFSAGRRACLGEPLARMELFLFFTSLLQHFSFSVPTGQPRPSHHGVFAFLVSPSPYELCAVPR

[2] = target: Melanin-concentrating hormone receptor 1 (Homo sapiens, UniProt Q99705); experiment: Fluorescence-based counterscreen for antagonists of the G-protein coupled receptor 7 (GPR7): cell-based high throughput dose response assay to identify antagonists of the melanin-concentrating hormone receptor 1 (MCHR1).; type: functional
Sequence of Melanin-concentrating hormone receptor 1 (Q99705 whole entry): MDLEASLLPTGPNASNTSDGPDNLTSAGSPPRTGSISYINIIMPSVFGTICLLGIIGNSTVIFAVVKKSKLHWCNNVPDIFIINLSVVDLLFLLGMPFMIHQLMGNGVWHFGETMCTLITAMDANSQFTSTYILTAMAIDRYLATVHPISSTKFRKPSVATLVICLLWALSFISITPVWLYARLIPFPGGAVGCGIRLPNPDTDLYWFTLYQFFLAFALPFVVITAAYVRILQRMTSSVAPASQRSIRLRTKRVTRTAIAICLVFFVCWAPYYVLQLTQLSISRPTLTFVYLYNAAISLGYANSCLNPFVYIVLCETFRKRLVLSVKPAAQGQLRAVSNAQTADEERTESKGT

[3] = HepG2 cell cytotoxicity, dose response, cytotoxicity control for Shn3 inhibitor project, CellTiter-Glo, cherry-picked (AID 624134); type: functional, cell-based
[4] = control 3'UTR Renilla luciferase suppression, dose response, counter-screen for Shn3 inhibitor project, cell-based, Clone20-Shn3RL, cherry-picked (AID 624133); type: functional
[5] = inhibitors of SNCA 5'UTR-driven reporter translation, confirmation, H4 neuroglioma cells, luminescence (AID 1988); type: functional, cell-based
[6] = target: T1, Heat shock factor protein 1 (Mus musculus, UniProt P38532); experiment: inhibition of MG132-induced HSE-luciferase signal, confirmation, cell-based, NIH3T3, luminescence, dose retest (AID 2382); type: functional;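 note: NIH3T3 fibroblasts with HSF1-driven luciferase reporter stressed by proteasome inhibitor MG132; luminescence from HSF1-driven luciferase expression after 8 hours of MG132 stress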
T1 sequence (P38532 whole entry): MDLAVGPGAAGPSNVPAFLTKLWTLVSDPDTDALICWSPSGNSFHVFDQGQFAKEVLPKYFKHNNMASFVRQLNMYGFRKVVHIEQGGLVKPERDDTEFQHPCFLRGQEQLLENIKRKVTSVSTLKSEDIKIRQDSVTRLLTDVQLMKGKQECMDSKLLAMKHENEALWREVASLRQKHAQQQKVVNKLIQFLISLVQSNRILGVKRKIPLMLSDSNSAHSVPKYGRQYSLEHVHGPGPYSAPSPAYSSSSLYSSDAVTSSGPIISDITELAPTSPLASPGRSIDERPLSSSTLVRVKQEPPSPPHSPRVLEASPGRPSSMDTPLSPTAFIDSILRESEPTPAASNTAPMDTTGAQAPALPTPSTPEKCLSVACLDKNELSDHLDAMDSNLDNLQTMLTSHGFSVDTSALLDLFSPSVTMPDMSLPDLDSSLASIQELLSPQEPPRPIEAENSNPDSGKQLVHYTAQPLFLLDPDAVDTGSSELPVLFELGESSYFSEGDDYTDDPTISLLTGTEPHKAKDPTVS

[7] = Shn3 3'UTR reporter inhibitors, dose response, cell-based, Clone20 osteoblasts, firefly luciferase, cherry-picked (AID 624132); type: functional;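 note: firefly luciferase luminescence from reporter carrying the Shn3 3'UTR in osteoblasts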
[8] = target: T2, Scavenger receptor class B member 1 (Mus musculus, UniProt Q61009); experiment: inhibitors of SR-BI mediated HDL lipid uptake, dose response, ldlA[mSR-BI] cells, fluorescence, cherry pick (AID 493194); type: functional, cell-based;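 note: cellular uptake of fluorescent DiI-labeled HDL measured as cell fluorescence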
T2 sequence (Q61009 whole entry): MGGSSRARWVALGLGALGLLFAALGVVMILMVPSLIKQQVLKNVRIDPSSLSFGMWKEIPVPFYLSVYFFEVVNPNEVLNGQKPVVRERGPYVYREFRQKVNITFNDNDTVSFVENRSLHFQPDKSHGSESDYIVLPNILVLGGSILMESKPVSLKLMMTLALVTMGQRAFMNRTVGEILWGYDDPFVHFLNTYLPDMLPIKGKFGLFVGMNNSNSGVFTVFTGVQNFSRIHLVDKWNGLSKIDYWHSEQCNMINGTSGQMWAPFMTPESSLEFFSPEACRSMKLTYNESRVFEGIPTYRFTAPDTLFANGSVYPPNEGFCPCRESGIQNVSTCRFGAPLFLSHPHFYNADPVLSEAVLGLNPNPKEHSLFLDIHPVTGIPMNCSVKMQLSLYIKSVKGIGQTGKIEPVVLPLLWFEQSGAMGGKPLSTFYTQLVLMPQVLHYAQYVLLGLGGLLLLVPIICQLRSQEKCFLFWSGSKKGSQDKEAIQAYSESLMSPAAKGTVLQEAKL

[9] = inhibitors of firefly luciferase expression or activity, dose response, H4 neuroglioma cells, luminescence (AID 1990); type: functional, cell-based
[10] = Luminescence Cell-Based Dose Response HTS to Identify Inhibitors of 5'UTR Stem-Loop Driven Prion Protein mRNA Translation in H4 Neuroglioblastoma Cells. [Related pubchem assays: 1827 (Project Summary), 1813 (Primary HTS)]; type: functional
Estrogen receptor = target: T3, Estrogen receptor (Homo sapiens, UniProt P03372);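 note: potency for inhibiting coactivator peptide recruitment to the receptor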
T3 sequence (P03372 whole entry): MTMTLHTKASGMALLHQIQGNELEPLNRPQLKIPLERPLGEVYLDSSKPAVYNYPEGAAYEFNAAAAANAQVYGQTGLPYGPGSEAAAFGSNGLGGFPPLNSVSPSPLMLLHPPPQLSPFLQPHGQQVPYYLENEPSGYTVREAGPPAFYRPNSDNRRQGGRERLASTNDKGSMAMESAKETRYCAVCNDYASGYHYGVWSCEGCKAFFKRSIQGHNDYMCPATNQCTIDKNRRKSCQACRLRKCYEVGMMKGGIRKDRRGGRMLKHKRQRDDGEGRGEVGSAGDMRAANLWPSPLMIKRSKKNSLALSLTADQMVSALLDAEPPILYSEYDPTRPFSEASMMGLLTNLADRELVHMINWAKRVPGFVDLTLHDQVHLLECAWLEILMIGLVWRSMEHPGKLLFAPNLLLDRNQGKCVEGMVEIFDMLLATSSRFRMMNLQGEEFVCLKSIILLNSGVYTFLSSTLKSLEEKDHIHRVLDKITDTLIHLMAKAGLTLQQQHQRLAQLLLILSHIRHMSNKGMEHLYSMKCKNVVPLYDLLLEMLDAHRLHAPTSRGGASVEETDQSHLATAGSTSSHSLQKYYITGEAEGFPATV

[11] = target: T4, Eukaryotic translation initiation factor 2-alpha kinase 3 (Homo sapiens, UniProt Q9NZJ5); experiment: Counterscreen assay for PERK inhibitors: Dose response cell-based high throughput screening assay to measure inhibition of PERK at 6 hours. [Related pubchem assays: 1522, 1416 ]; type: functional
T4 sequence (Q9NZJ5 whole entry): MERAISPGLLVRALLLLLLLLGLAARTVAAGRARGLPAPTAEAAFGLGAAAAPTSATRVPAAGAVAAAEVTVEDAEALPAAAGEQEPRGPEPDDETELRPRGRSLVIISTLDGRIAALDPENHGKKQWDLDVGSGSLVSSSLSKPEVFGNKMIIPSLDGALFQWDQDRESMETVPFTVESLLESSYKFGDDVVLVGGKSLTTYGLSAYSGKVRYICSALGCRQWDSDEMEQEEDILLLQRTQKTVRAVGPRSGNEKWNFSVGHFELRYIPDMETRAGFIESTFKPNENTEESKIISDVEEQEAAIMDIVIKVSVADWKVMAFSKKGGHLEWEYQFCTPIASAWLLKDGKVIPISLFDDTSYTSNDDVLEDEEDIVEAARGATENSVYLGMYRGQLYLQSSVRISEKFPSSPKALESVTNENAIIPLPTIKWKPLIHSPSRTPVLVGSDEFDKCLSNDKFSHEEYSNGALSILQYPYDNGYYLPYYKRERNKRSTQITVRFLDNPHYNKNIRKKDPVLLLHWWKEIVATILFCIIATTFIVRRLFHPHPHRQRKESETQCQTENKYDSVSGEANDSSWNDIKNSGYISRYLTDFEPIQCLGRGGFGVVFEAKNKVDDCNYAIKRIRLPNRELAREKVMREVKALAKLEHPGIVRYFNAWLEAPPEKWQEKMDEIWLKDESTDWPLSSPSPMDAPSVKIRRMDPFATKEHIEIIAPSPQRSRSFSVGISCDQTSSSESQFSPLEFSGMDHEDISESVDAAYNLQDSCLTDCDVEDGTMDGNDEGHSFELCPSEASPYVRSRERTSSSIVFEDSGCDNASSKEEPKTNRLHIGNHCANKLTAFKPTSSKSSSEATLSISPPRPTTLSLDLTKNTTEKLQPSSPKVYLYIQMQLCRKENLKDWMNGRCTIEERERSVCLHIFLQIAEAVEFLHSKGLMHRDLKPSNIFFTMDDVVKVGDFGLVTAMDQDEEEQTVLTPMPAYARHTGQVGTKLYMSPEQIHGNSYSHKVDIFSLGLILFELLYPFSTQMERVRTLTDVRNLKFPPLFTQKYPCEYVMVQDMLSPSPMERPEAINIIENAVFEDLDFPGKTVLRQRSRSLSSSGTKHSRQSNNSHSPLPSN

[12] = target: T4, Eukaryotic translation initiation factor 2-alpha kinase 3; experiment: Dose response cell-based high-throughput screening assay to measure PERK inhibition. [Related pubchem assays: 1416 ]; type: functional
[13] = tested on: Streptococcus sp. 'group A'; experiment: growth inhibition of control SK(-) GAS strain, dose response, counter-screen for streptokinase expression inhibitor project, luminescence, kanamycin, BacTiterGlo, confirmation (AID 1900); type: functional, organism-based
[14] = target: T5, Small ubiquitin-related modifier 2 (Homo sapiens, UniProt P61956); experiment: SUMO2–SIM peptide binding inhibitors, dose response, selectivity assay for SUMO1 interaction inhibitor project, biochemical, fluorescence polarization, uHTS hits (AID 624385); type: functional; details: read-out: IC50_Mean
T5 sequence (P61956 whole entry): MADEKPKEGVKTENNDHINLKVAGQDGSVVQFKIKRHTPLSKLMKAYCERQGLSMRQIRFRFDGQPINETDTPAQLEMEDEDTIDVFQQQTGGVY

[15] = target: T5, Small ubiquitin-related modifier 2; experiment: inhibitors of SUMO2 protein-protein interaction, dose response, selectivity assay for SUMO1 interaction inhibitor project, biochemical, FRET, human SUMO2, uHTS hits (AID 624384); type: functional; details: read-out: IC50_Mean
[16] = target: T6, Small ubiquitin-related modifier 1 (Homo sapiens, UniProt P63165); experiment: inhibitors of SUMO1 peptide binding, dose response, biochemical, fluorescence polarization, uHTS hits (AID 624382); type: functional; details: read-out: IC50_Mean
T6 sequence (P63165 whole entry): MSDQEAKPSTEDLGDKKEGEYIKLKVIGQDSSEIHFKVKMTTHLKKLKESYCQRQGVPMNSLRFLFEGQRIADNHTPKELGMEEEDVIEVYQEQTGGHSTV

Streptococcus = experiment: Group A Streptococcus viability loss, dose response, counter-screen for streptokinase expression inhibitor project, luminescence, BacTiterGlo (AID 1915); type: functional, organism-based;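 note: potency for reduction of bacterial viability or growth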
[17] = HIV-1 Env-mediated cell fusion inhibitors, dose response, CCR5-tropic Env (AID 2279); type: functional
[18] = target: T6, Small ubiquitin-related modifier 1; experiment: inhibitors of SUMO1 partner interactions, dose response, biochemical, FRET (AID 624383); type: functional; details: read-out: IC50_Mean
[19] = Cytotoxicity screening for potential Inhibitors of Bacterial Capsule Biogenesis. [Related pubchem assays (depositor defined):AID488970]; type: functional
Protein Rev = Protein Rev (Human immunodeficiency virus type 1 group M subtype B (isolate HXB2)(HIV-1), UniProt P04618); experiment: inhibitors of Rev binding to RRE RNA, dose response, biochemical, fluorescence polarization, HIV-1 (AID 434976); set-up: species or system Human immunodeficiency virus 1
Sequence of Protein Rev (P04618 whole entry): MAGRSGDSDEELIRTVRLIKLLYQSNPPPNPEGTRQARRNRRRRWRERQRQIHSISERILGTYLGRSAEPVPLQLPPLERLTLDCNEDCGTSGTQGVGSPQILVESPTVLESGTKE

[20] = target: Female germline-specific tumor suppressor gld-1 (Caenorhabditis elegans, UniProt Q17339); experiment: inhibitors of GLD-1 binding to TGE RNA, dose response, biochemical, fluorescence polarization, C. elegans (AID 2802);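 note: fluorescence polarization of labeled TGE RNA bound by purified gld-1 protein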
Sequence of Female germline-specific tumor suppressor gld-1 (Q17339 whole entry, the tested form may be a part): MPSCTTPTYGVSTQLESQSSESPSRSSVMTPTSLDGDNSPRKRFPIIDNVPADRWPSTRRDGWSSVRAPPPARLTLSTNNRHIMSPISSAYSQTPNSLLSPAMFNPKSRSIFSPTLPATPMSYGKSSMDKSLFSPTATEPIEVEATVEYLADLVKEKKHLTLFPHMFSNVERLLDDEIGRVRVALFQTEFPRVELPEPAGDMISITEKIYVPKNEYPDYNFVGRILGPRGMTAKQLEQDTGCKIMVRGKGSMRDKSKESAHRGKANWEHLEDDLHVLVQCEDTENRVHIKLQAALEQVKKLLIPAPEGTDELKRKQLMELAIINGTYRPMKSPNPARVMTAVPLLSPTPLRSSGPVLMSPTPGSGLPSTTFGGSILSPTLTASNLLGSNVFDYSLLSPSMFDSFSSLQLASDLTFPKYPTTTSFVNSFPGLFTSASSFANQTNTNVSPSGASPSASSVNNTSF

[21] = target: T7, RNA-binding protein pos-1 (Caenorhabditis elegans, UniProt G5EF15); experiment: inhibitors of POS-1/mex-3 RNA binding, dose response, biochemical, fluorescence polarization (AID 1964);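 note: purified POS-1 fused to maltose binding protein made in E. coli; potency of compounds blocking POS-1 binding to fluorescent RNA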
T7 sequence (G5EF15 whole entry): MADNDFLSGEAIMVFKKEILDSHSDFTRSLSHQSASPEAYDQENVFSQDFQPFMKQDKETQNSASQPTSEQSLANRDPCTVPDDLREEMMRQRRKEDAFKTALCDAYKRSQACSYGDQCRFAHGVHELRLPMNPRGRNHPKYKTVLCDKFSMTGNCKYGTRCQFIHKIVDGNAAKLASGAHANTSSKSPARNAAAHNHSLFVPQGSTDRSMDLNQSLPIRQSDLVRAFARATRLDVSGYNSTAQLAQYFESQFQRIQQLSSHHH

[22] = target: T8, Zinc finger protein mex-5 (Caenorhabditis elegans, UniProt Q9XUB2); experiment: MEX-5/TCR-2 RNA interaction inhibitors, dose response, biochemical, C. elegans, fluorescence polarization (AID 1960)
T8 sequence (Q9XUB2 whole entry): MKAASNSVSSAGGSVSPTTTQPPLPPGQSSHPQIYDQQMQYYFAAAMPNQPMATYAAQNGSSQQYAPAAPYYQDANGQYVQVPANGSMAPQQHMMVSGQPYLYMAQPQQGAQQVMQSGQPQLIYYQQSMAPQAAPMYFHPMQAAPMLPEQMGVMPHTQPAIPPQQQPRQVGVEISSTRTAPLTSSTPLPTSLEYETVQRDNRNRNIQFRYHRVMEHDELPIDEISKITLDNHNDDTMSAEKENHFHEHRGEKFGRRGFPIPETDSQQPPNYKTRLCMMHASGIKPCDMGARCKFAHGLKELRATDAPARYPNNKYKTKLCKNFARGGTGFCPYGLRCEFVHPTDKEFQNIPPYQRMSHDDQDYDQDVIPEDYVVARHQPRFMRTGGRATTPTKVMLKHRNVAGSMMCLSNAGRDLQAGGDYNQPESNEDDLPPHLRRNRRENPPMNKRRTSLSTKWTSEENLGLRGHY

Staphylococcus aureus = experiment: Inhibitors of Bacterial Quorum Sensing Structure Activity Relationship (SAR) Analysis: Dose Response Assay. [Related pubchem assays: 700, 527 ]; type: functional, organism-based

Sequence of Bcl-2-like protein 10 (Q9HD36 whole entry): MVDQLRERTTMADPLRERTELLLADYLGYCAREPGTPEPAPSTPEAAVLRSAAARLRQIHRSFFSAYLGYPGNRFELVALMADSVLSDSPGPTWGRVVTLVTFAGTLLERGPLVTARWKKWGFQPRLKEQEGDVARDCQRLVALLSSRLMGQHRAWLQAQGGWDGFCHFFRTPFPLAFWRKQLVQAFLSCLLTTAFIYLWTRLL

## Cc1cc(C)n2nc(C(=O)OCC(=O)c3cc(C)n(C)c3C)nc2n1
Bcl-2-like protein 10
  IC50: 24.4 µM (active)
Estrogen receptor beta
  IC50: > 50 µM (not active)

## CN(C)CCNC(=O)c1cc(-c2ccco2)nc2ccccc12
[1]
  IC50: > 56.8 µM (inactive)

## COC(=O)[C@@]1(Cc2ccc(F)cc2)[C@H]2c3cc(C(=O)N(C)C)n(Cc4ccccc4)c3C[C@H]2CN1C(=O)c1ccccc1
Cytochrome P450 2D6
  AC50: 20 µM (inconclusive)
[2]
  IC50: 11.1 µM (not active)

## CCOc1cc(N2CCOCC2)c(OCC)cc1NC(=O)c1cc(-c2ccco2)nc2ccccc12
[3]
  AC50: 53.5 µM (active)
[4]
  AC50: 9.78 µM (active)
[5]
  EC50: 7.84 µM (active)
[6]
  EC50: 1.21 µM (active)
[7]
  AC50: 8.94 µM (active)
[8]
  AC50: 46.2 µM (active)
[9]
  EC50: > 120 µM (not active)
[10]
  EC50: > 120 µM (not active)
Estrogen receptor
  IC50: 14.7 µM (active)

## CCN1CC(=O)Nc2cc(S(=O)(=O)N3CCOCC3)ccc21
[11]
  EC50: > 55.7 µM (not active)
[12]
  EC50: > 55.7 µM (not active)

## O=C(COc1ccc(Cl)cc1Cl)Nc1ccc(C(=O)Nc2ccccc2C(=O)O)cc1
[13]
  EC50: 3.72 µM (active)
[14]
  IC50: 13.3 µM (active)
[15]
  IC50: 48.1 µM (inactive)
[16]
  IC50: 2.7 µM (active)
Streptococcus
  EC50: > 150 µM (not active)
[17]
  IC50: > 50 µM (active)
[18]
  IC50: 11.3 µM (active)
[19]
  CC50: 45.3 µM (active)

## CCCn1c(N)c(N(CCOC)C(=O)Cc2ccc(S(=O)(=O)N3CCOCC3)s2)c(=O)[nH]c1=O
Protein Rev
  IC50: 39.6 µM (not active)
[20]
  IC50: 16.2 µM (inactive)
[21]
  EC50: > 300 µM (not active)
[22]
  EC50: > 300 µM (not active)

## N#Cc1c(NC(=O)CN2C(=O)c3ccccc3C2=O)oc(-c2ccccc2)c1-c1ccccc1
Staphylococcus aureus
  IC50: 1.99 µM (active)
